# According to patent US12692264B2, “Pyrimidine or pyridine derivative, preparation method therefor, and application thereof in pharmacy” (ABBISKO THERAPEUTICS CO., LTD., priority 2021, dated 2026):
# Biological target: Ba/F3 EGFR-D770-N771ins_SVD (Homo sapiens, UniProt P00533, DUP768-770, cells depend on it)
# Assay: Cell proliferation study (CellTiter-Glo, 72 hrs), Ba/F3 EGFR-D770-N771ins_SVD
# Format: cell-based
# Conditions: CTG, * = average of multiple measurements, read-out: Ba/F3 EGFR-D770-N771ins_SVD IC50
# Experimental: (I) Reagents and Materials
# • Fetal bovine serum FBS (GBICO, Cat #10099-141); • CellTiter-Glo® luminescent cell viability assay kit (Promega, Cat #G7572); • Black transparent flat-bottom 96-well plate (Corning®, Cat #3603). (II) Instruments • SpectraMax multi-label microplate reader MD, 2104-0010A; • Carbon dioxide incubator, Thermo Scientific 3100 series; • Biological safety cabinet, Thermo Scientific, 1300 series model A2; • Inverted microscope, Olympus, CKX41SF; • Siemens refrigerator KK25E76T1. (III) Cell Lines and Culture Conditions
# (IV) Experimental Procedures 1. Cell Culture and Inoculation: • (1) Cells in the logarithmic growth phase were harvested and counted using a […]. The cell viability was determined by the trypan blue dye exclusion method to ensure cell viability above 90%. • (2) The cell concentration was adjusted to reach a desired final density; 90 μL of cell suspension was added to a 96-well plate. • (3) The cells were incubated overnight in the 96-well plate at 37° C., 5% CO2 and with 95% humidity. 2. T0 Benchmark Data: • (1) 10 μL of PBS was added to each well of the TO plate containing the cells. • (2) The CTG reagent was thawed and the cell plate was equilibrated to room temperature for 30 min. • (3) An equal volume of CTG solution was added to each well. • (4) The cells were lysed by shaking on an orbital shaker for 5 min. • (5) The cell plate was left to stand at room temperature for 20 min to stabilize the fluorescence signal. • (6) The fluorescence signal values of TO were read. 3. Dilution and Addition of Compounds • (1) According to the compound information table, a corresponding volume of DMSO was added to the corresponding compound powder to prepare a 10 mM stock solution. • (2) A 1000-fold, 3.16-fold-diluted compound solution was prepared. • (3) The 1000× diluted compound solution was diluted 100-fold with PBS to prepare a 10-fold compound solution with a maximum concentration of 10 μM, including 9 concentrations, with 3.16-fold dilution, and 10 μL of the medicament solution was added to each well of the 96-well plate to seed the cells. Triplicate wells were set for each compound concentration, with a final concentration of DMSO being 0.1%. • (4) The cells were placed in the 96-well plate containing the medicament at 37° C., 5% CO2 and with 95% humidity, and cultured for 72 hrs before CTG analysis. 4. Fluorescence Signal Reading • (1) The CTG reagent was thawed and the cell plate was equilibrated to room temperature for 30 min. • (2) An equal volume of CTG solution was added to each well. • (3) The cells were lysed by shaking on an orbital shaker for 5 min. • (4) The cell plate was left to stand at room temperature for 20 min to stabilize the fluorescence signal. • (5) The fluorescence values were read. 5. Data Processing
# Data were analyzed using GraphPad Prism 7.0 software and fitted data were regressed using non-linear S-curves to obtain dose-response curves from which IC50 values (in nM) were calculated.
# Chain of Ba/F3 EGFR-D770-N771ins_SVD (P00533 with tags, fused parts or gaps DUP768-770): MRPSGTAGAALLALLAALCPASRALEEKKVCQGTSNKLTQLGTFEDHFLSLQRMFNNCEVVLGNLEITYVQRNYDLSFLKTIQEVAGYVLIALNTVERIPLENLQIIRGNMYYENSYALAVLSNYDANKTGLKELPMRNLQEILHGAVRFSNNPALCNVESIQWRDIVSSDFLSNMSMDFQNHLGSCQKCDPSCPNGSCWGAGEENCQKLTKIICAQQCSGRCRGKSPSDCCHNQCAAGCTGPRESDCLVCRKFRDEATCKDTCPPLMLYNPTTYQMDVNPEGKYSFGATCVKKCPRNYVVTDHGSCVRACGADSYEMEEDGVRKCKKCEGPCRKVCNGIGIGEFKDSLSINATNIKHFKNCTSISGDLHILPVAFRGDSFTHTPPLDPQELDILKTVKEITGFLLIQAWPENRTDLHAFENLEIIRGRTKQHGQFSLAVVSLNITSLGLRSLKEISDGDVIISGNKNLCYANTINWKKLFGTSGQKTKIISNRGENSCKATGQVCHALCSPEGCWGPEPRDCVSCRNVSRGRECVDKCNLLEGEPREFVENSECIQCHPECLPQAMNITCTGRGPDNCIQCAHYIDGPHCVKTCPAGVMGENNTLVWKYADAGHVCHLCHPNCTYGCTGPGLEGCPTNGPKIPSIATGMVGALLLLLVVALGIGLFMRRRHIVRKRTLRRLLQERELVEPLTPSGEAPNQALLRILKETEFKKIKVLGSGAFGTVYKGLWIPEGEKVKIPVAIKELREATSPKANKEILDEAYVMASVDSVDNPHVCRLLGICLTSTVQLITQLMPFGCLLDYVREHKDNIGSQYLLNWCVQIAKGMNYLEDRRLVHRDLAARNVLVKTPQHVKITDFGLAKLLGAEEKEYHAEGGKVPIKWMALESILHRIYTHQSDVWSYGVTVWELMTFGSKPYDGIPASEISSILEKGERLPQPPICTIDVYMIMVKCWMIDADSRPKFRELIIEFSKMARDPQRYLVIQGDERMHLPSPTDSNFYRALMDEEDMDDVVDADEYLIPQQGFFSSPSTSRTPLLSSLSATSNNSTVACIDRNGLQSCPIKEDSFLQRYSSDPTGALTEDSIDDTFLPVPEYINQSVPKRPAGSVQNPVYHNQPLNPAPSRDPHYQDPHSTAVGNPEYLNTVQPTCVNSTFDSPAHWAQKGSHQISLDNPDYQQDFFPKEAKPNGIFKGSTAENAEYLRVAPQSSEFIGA
row,SMILES,GI50
1,"C=CC(=O)Nc1cc(Nc2ncc(C(=O)OC(C)C)c(N3CC(C)(C)c4nc5c(cc43)CCC5)n2)c(OC)cc1N(C)CCN(C)C [Example 80, isopropyl 2-((5-acrylamido-4-((2-(dimethylami-no)ethyl)(methyl)amino)-2-methoxy-phenyl)amino)-4-(3,3-dimethyl-3,5,6,7-tetrahydrocyclopenta[b]pyrrolo[2,3-e]pyridin-1(2H)-yl)pyrimidine-5-carboxylate]",44.9 nM
2,"C=CC(=O)Nc1cc(Nc2ncc(C(=O)OC(C)C)c(N3CC(C)(C)c4nc(C)ccc43)n2)c(OC)cc1N1CCN(C2CC2)CC1 [Example 39, isopropyl 2-((5-acrylamido-4-(4-cyclopropyl-piperazin-1-yl)-2-methoxy-phenyl)amino)-4-(3,3,5-trimethyl-2,3-dihydro-1H-pyrrolo[3,2-b]pyridin-1-yl)pyrimidine-5-carboxylate]",545 nM
3,"C=CC(=O)Nc1cc(Nc2ncc(C(=O)OC(C)C)c(N3CC(C)(C)c4nc(C)ccc43)n2)c(OC)cc1N1CCN(C)CC1 [Example 33, isopropyl 2-((5-acrylamido-2-methoxy-4-(4-methylpiperazin-1-yl)phenyl)amino)-4-(3,3,5-trimethyl-2,3-dihydro-1H-pyrrolo[3,2-b]pyridin-1-yl)pyrimidine-5-carboxylate]",503 nM
4,"[2H]C([2H])([2H])N(CCN(C)C)c1cc(OC)c(Nc2ncc(C(=O)OC(C)C)c(N3CC4(CC4)c4nc(C)ccc43)n2)cc1NC(=O)C=C [Example 68, isopropyl 2-((5-acrylamino-4-((2-(dimethylami-no)ethyl)(methyl-d3)amino)-2-methoxyphenyl)amino)-4-(5′-methylspiro(cyclopropane-1,3′-pyrrolo[3,2-b]pyridin)-1′(2′H)-yl)pyrimidine-5-carboxylate]",30.6 nM
5,"C=CC(=O)Nc1cc(Nc2ncc(C(=O)OC(C)C)c(N3CC(C)(C)c4nc(C)ccc43)n2)c(OC)cc1N(CC)CCN(C)C [Example 45, isopropyl 2-((5-acrylamido-4-((2-(dimethylami-no)ethyl)(ethyl)amino)-2-methoxy-phenyl)amino)-4-(3,3,5-trimethyl-2,3-dihydro-1H-pyrrolo[3,2-b]pyridin-1-yl)pyrimidine-5-carboxylate]",76.2 nM
6,"C=CC(=O)Nc1cc(Nc2ncc(C(=O)OC(C)C)c(N3CC(C)(C)c4nc(C)ccc43)n2)c(OC)nc1N1CCC[C@H]1CN(C)C [Example 43, isopropyl (S)-2-((5-acrylamido-6-(2-((dimethyl-amino)methyl)pyrrolidin-1-yl)-2-meth-oxypyridin-3-yl)amino)-4-(3,3,5-tri-methyl-2,3-dihydro-1H-pyrrolo[3,2-b]pyridin-1-yl)pyrimidine-5-carboxylate]",453 nM

# Further lines, results first:
row,GI50,SMILES
1,309 nM,"C=CC(=O)Nc1cc(Nc2ncc(C(=O)OC(C)C)c(N3CC(C)(C)c4nc(C(C)C)ccc43)n2)c(OC)cc1N(C)CCN(C)C [Example 16, isopropyl 2-((5-acrylamido-4-((2-(dimethylami-no)ethyl)(methyl)amino)-2-methoxy-phenyl)amino)-4-(5-isopropyl-3,3-dimethyl-2,3-dihydro-1H-pyrrolo[3,2-b]pyridin-1-yl)pyrimidine-5-carboxylate]"
2,50.8 nM,"C=CC(=O)Nc1cc(Nc2ncc(C(=O)OC(C)C)c(N3CC(C)(C)c4nc(C#CC5CC5)ccc43)n2)c(OC)cc1N(C)CCN(C)C [Example 18, isopropyl 2-((5-acrylamido-4-((2-(dimethylami-no)ethyl)(methyl)amino)-2-methoxy-phenyl)amino)-4-(5-(cyclo-propylethynyl)-3,3-dimethyl-2,3-dihydro-1H-pyrrolo[3,2-b]pyridin-1-yl)pyrimidine-5-carboxylate]"
3,119 nM,"C=CC(=O)Nc1cc(Nc2ncc(C(=O)OC(C)C)c(N3CC(C)(C)c4nc(C#CC(C)C)ccc43)n2)c(OC)cc1N(C)CCN(C)C [Example 19, isopropyl 2-((5-acrylamido-4-((2-(dimethylami-no)ethyl)(methyl)amino)-2-methoxy-phenyl)amino)-4-(3,3-dimethyl-5-(3-methylbut-1-yn-1-yl)-2,3-dihydro-1H-pyrrolo[3,2-b]pyridin-1-yl)pyrimidine-5-carboxylate]"
